The values below come from patent publication US10251932B2, “Preparations containing amorphous emodepside” (Bayer Intellectual Property GmbH, priority 2011, dated 2019).

The data set is described as follows: Solubility of emodepside in water. As to conditions: range of pH 4-10. It counts as physicochemical.

Molecules are shown by their SMILES. In brackets after ≈: the same amount, converted by molar mass.

Take `CC(C)CC1C(=O)OC(Cc2ccc(N3CCOCC3)cc2)C(=O)N(C)C(CC(C)C)C(=O)OC(C)C(=O)N(C)C(CC(C)C)C(=O)OC(Cc2ccc(N3CCOCC3)cc2)C(=O)N(C)C(CC(C)C)C(=O)OC(C)C(=O)N1C` [Emodepside, cyclo[(R)-lactoyl-N-methyl-1-leucyl-(R)-3-(p-morpholinophenyl)lactoyl-N-methyl-1-leucyl-(R)-lactoyl-N-methyl-1-leucyl-(R)-3-(p-morpholinophenyl)lactoyl-N-methyl-1-leucyl]: the solubility (in general, how much of the substance goes into solution per volume) fell in the range of 5 to 7 µg/mL (≈ 4.47 to 6.25 µM).
